We go through 14 compounds from patent US5691372A, “Oxygenated-Heterocycle containing sulfonamide inhibitors of aspartyl protease” (Vertex Pharmaceuticals Incorporated, priority 1995, dated 1997).

As usually defined, the Ki is the dissociation constant of the complex between target and ligand, obtained from inhibition or displacement. Read a low Ki as tighter binding. A word on the IC90: it is the concentration needed for an effect of 90%. Read a high IC90 as weaker potency.

For assay [1], the target named is HIV-1 protease (Human immunodeficiency virus type 1 group M subtype B, UniProt P04585). As to the kind of experiment: inhibition constants against HIV-1 protease (method of Pennington et al.). The format is biochemical. An excerpt:
We have measured the inhibition constants of each compound against HIV-1 protease using the method described essentially by M. W. Pennington et al., Peptides 1990, Gimet, E. and D. Andrew, Eds., Escom; Leiden, Netherlands (1990).
We measured the inhibition constants of the compounds listed in Table II against HIV-1 protease using the above-cited method of Pennington et al.

Assay [2] relates to HIVIIIb in CCRM-CEM cells. Kind of assay: anti-viral potency in CCRM-CEM cells acutely infected with HIVIIIb, extracellular p24 antigen (method of Meek et al.). The class given is cell-based, HIV-1; CD4+ human T-cell lymphoma cells. The settings on record: Human immunodeficiency virus 1. The method, then:
Compounds of formula I were tested for their antiviral potency in several virological assays. In the first assay, the compounds were added as a solution in dimethylsulfoxide (DMSO) to a test cell culture of CCRM-CEM cells, a strain of CD4^+ human T-cell lymphoma cells, previously acutely infected with […] using standard protocols (see Meek, T. D. et al., "Inhibition of HIV-1 protease in infected T-lymphocytes by synthetic peptide analogues", Nature, 343, p. 90 (1990). Preferred compounds are those which are able to inhibit 90% of viral infectivity at a concentration of 1 μM or less. More preferred compounds are those which are able to inhibit 90% of viral infectivity at a concentration of 100 nM or less. The effect of the compounds on inhibiting the replication of the virus was measured by determining the HIV extracellular p24 antigen concentration using a commercial enzyme immunoassay (obtained from Coulter Corporation, Hialeah, Fla.). […] Ki and IC90 values are expressed in nM. The designation "ND" is used where a given compound was not tested.

Each structure is given as a SMILES string.

As for `Nc1cccc(S(=O)(=O)N(CC2CCCC2)C[C@@H](O)[C@H](Cc2ccccc2)NC(=O)OC2COC3OCCCC23)c1` (single isomer, unassigned) [Compound 7], the Ki in assay [1] is less than 0.1 nM.
The compound `Nc1cccc(S(=O)(=O)N(CC2CCCC2)C[C@@H](O)[C@H](Cc2ccccc2)NC(=O)OC2COC3OCCCC23)c1` (single isomer, unassigned) [Compound 8] displayed a Ki in assay [1] of less than 0.1 nM.
`CC(C)CN(C[C@@H](O)[C@H](Cc1ccccc1)NC(=O)OC1COC2OCCCC12)S(=O)(=O)c1cccc(N)c1` (single isomer, unassigned) [Compound 9] showed a Ki in assay [1] of 0.1 nM.
In turn, `CC(C)CN(C[C@@H](O)[C@H](Cc1ccccc1)NC(=O)OC1COC2OCCCC12)S(=O)(=O)c1cccc(N)c1` (single isomer, unassigned) [Compound 10] showed an inhibition constant Ki in assay [1] of less than 0.1 nM.
`COc1ccc(S(=O)(=O)N(CC2CCCC2)C[C@@H](O)[C@H](Cc2ccccc2)NC(=O)OC2COCOC2)cc1` [Compound 1, N-Cyclopentylmethyl-N-((2 syn, 3S)-2-hydroxy-4-phenyl-3-(1,3-dioxan-5-yl-oxycarbonylamino))butyl-4-methoxy-benzenesulfonamide]: the inhibition constant Ki in assay [1] was less than 0.1 nM. Moreover, in assay [2], the 90% effect level (IC90) was put at 5 nM.
In assay [1], `COc1ccc(S(=O)(=O)N(CC2CCCC2)C[C@@H](O)[C@H](Cc2ccccc2)NC(=O)OCC2COCO2)cc1` (stereo partly drawn) [Compound 2, N-Cyclopentylmethyl-N-((2 syn, 3S)-2-hydroxy-4-phenyl-3-(1,3-dioxolan-4-yl-methoxycarbonylamino))butyl-4-methoxy-benzenesulfonamide] came in with a Ki of 0.3 nM. This lies in the sub-nanomolar range.
The compound `Nc1ccc(S(=O)(=O)N(CC2CCCC2)C[C@@H](O)[C@H](Cc2ccccc2)NC(=O)OC2COCOC2)cc1` [Compound 3, 4-Amino-N-cyclopentylmethyl-N-((2 syn, 3S)-2-hydroxy-4-phenyl-3-(1,3-dioxan-5-yl-oxycarbonylamino))butyl-benzenesulfonamide] returned a Ki in assay [1] of 0.1 nM. The compound further displayed an IC90 in assay [2] of 4 nM.
In the case of `CC(C)CN(C[C@@H](O)[C@H](Cc1ccccc1)NC(=O)OC1COCOC1)S(=O)(=O)c1ccc(N)cc1` [Compound 4, 4-Amino-N-((2 syn, 3S)-2-hydroxy-4-phenyl-3-1,3-dioxan-5-yl-oxycarbonylamino)butyl-N-isobutyl-benzenesulfonamide], the affinity in assay [1], expressed as Ki, was 0.3 nM. In assay [2], this compound showed a 90% effect concentration (IC90) of 12 nM.
`CC(C)CN(C[C@@H](O)[C@H](Cc1ccccc1)NC(=O)OC1COCOC1)S(=O)(=O)c1cccc(N)c1` [Compound 5, 3-Amino-N-((2 syn, 3S)-2-hydroxy-4-phenyl-3-1,3-dioxan-5-yl-oxycarbonylamino)butyl-N-isobutyl-benzenesulfonamide]: in assay [1], the affinity, expressed as Ki, was 0.15 nM. The 90% effect level in assay [2] (IC90) was put at 7 nM.
Turning to `Nc1cccc(S(=O)(=O)N(CC2CCCC2)C[C@@H](O)[C@H](Cc2ccccc2)NC(=O)OC2COCOC2)c1` [Compound 6, 3-Amino-N-cyclopentylmethyl-N-((2 syn, 3S)-2-hydroxy-4-phenyl-3-(1,3-dioxan-5-yl-oxycarbonylamino))butyl-benzenesulfonamide], in assay [1], the inhibitory constant (Ki) is less than 0.1 nM. The compound further returned a 90% effect concentration (IC90) in assay [2] of 5 nM.
Regarding `CC(=O)Nc1ccc(S(=O)(=O)N(C)C[C@@H](O)[C@H](Cc2ccccc2)NC(=O)OC2COC3OCCCC23)cc1` (stereo partly drawn) [Compound 11, 4-Acetamido-N-((2 syn, 3S)-2-hydroxy-4-phenyl-3-tetrahydropyrano-[2,3-b]tetrahydrofuran-4-yloxycarbonylamino)butyl-N-methyl-benzenesulfonamide], in assay [1], the affinity, expressed as Ki, was 160 nM.
As to `CC(C)C[C@H](NC(=O)OC1COC2OCCCC12)[C@H](O)CN(CC1CCCCC1)S(=O)(=O)c1cccc(N)c1` (stereo partly shown) [Compound 12], the Ki in assay [1] amounted to 1.5 nM.
Compound `CC1(OC(=O)N[C@@H](Cc2ccccc2)[C@H](O)CN(CC2CCCC2)S(=O)(=O)c2cccc(N)c2)CCOC1` (stereo partly drawn) [Compound 15, 3-Amino-N-cyclopentylmethyl-N-((2 syn, 3S)-2-hydroxy-4-phenyl-3-(3-methyltetrahydrofuran-3-yl)oxycarbonylamino)butyl-benzenesulfonamide] registered a Ki in assay [1] of 0.4 nM.
In assay [1], `CC(C)CN(C[C@@H](O)[C@H](Cc1ccccc1)NC(=O)OC1(C)CCOC1)S(=O)(=O)c1cccc(N)c1` (stereo partly drawn) [Compound 16, 3-Amino-N-((2 syn, 3S)-2-hydroxy-4-phenyl-3-(3-methyltetrahydrofuran-3-yl)oxycarbonylamino)butyl-N-isobutyl-benzenesulfonamide] returned an inhibition constant (Ki) of 1.5 nM. This Ki lies about 3.8-fold higher than the previous one.
